Laboratory results reported in patent US20140081017A1, “Histone Deacetylase Inhibitors for Enhancing Activity of Antifungal Agents” (METHYLGENE INC., priority 2012, published 2014).
Values after ≈ are worked out from the molar mass of the structure shown. Read-outs that look alike come from different tables or passages of the source.

How the values were obtained:
[1] = test system: C. glabrata; test: Checkerboard FIC assay in combination with fluconazole (MIC alone and in combination, FICI); format: cell-based, Candida glabrata; conditions: for FICI of combination resulting in fluconazole MIC of: 2 ug/mL / FICI of combination resulting in fluconazole MIC of: 4 ug/mL / FICI of combination resulting in fluconazole MIC of: 8 ug/mL: FICI calculated using a fluconazole MIC of 16 μg/mL; for FICI of combination resulting in fluconazole MIC of: 2 ug/mL (value in parenthesis) / FICI of combination resulting in fluconazole MIC of: 4 ug/mL (value in parenthesis) / FICI of combination resulting in fluconazole MIC of: 8 ug/mL (value in parenthesis): FICI using a fluconazole MIC of 128 μg/mL; for MIC: Nakaseomyces glabratus; for Concentration of Methylgene compound to synergize fluconazole MIC to 2 ug/mL / Concentration of Methylgene compound to synergize fluconazole MIC to 4 ug/mL / Concentration of Methylgene compound to synergize fluconazole MIC to 8 ug/mL: in combination with fluconazole; for Concentration of Methylgene compound to synergize fluconazole MIC to 2 ug/mL: fluconazole MIC lowered to 2 ug/mL; for Concentration of Methylgene compound to synergize fluconazole MIC to 4 ug/mL: fluconazole MIC lowered to 4 ug/mL; for Concentration of Methylgene compound to synergize fluconazole MIC to 8 ug/mL: fluconazole MIC lowered to 8 ug/mL; for Multiple of compound MIC to synergize fluconazole MIC to 2 ug/mL / Multiple of compound MIC to synergize fluconazole MIC to 4 ug/mL / Multiple of compound MIC to synergize fluconazole MIC to 8 ug/mL: concentration in combination as multiple of the compound's MIC alone; for Multiple of compound MIC to synergize fluconazole MIC to 2 ug/mL: fluconazole MIC 2 ug/mL; for Multiple of compound MIC to synergize fluconazole MIC to 4 ug/mL: fluconazole MIC 4 ug/mL; for Multiple of compound MIC to synergize fluconazole MIC to 8 ug/mL: fluconazole MIC 8 ug/mL
Outline: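 C. glabrata was tested by CLSI broth microdilution checkerboard, crossing 2-fold dilutions of compound with 2-fold dilutions of fluconazole. The medium was RPMI with 0.165 M MOPS at pH 7.0, inoculated from a 0.5 McFarland suspension diluted 1:100, then incubated about 48 h at 35 °C. Single-agent MICs gave the FIC and FICI values.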

[2] = test system: Candida glabrata; test: Minimal Inhibitory Concentration (MIC) assay, broth microdilution per CLSI; format: cell-based; conditions: Nakaseomyces glabratus, read-out: Minimum Inhibitory Concentrations against Yeast Isolates, Candida glabrata;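 also: two read times 24 hr and 48 hr of incubation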
Outline: (§1)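 Yeast isolates were grown overnight at 35° C on Sabouraud dextrose agar, adjusted to 0.5 McFarland in saline and diluted 1:100 in RPMI buffered with 0.165 M MOPS, pH 7.0. Compounds in DMSO were serially diluted 1:1. After 24-48 hr at 35° C, MIC was the lowest concentration inhibiting visible growth.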

[3] = test system: Candida albicans; test: as above; format: cell-based; conditions: Candida albicans, read-out: Minimum Inhibitory Concentrations against Yeast Isolates, Candida albicans;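 also: two read times 24 hr and 48 hr of incubation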
Outline: as §1

[4] = test system: Candida parapsilosis; test: as above; format: cell-based; conditions: Lodderomyces parapsilosis, read-out: Minimum Inhibitory Concentrations against Yeast Isolates, Candida parapsilosis;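 also: two read times 24 hr and 48 hr of incubation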
Outline: as §1

[5] = MIC of the example compound alone against C. glabrata in the checkerboard assay, approximately 48 hr, read-out: Methylgene MIC
[6] = test compound alone, C. glabrata, approx. 48 hr at 35° C., read-out: Compound MIC
[7] = 24 hr reading (first value of cell 24 hr/48 hr)
[8] = 48 hr reading (second value of cell 24 hr/48 hr)

Structure (SMILES)	FICI of combination resulting in fluconazole MIC of: 2 ug/mL ([1]; C. glabrata)	FICI of combination resulting in fluconazole MIC of: 4 ug/mL ([1]; C. glabrata)	FICI of combination resulting in fluconazole MIC of: 8 ug/mL ([1]; C. glabrata)	FICI of combination resulting in fluconazole MIC of: 2 ug/mL (value in parenthesis) ([1]; C. glabrata)	FICI of combination resulting in fluconazole MIC of: 4 ug/mL (value in parenthesis) ([1]; C. glabrata)	FICI of combination resulting in fluconazole MIC of: 8 ug/mL (value in parenthesis) ([1]; C. glabrata)	MIC [1, 5] [µg/mL]	MIC [1, 6] [µg/mL]	Concentration of Methylgene compound to synergize fluconazole MIC to 2 ug/mL ([1]; C. glabrata) [µg/mL]	Concentration of Methylgene compound to synergize fluconazole MIC to 4 ug/mL ([1]; C. glabrata) [µg/mL]	Concentration of Methylgene compound to synergize fluconazole MIC to 8 ug/mL ([1]; C. glabrata) [µg/mL]	MIC [2, 7] [µg/mL]	MIC [2, 8] [µg/mL]	MIC [3, 7] [µg/mL]	MIC [3, 8] [µg/mL]	MIC [4, 7] [µg/mL]	MIC [4, 8] [µg/mL]	Multiple of compound MIC to synergize fluconazole MIC to 2 ug/mL [1]	Multiple of compound MIC to synergize fluconazole MIC to 4 ug/mL [1]	Multiple of compound MIC to synergize fluconazole MIC to 8 ug/mL [1]
O=C(Cc1ccc(CCC(O)Cc2ccccc2)cc1)NO (stereo not drawn) [Example 57, N-hydroxy-2-(4-(3-hydroxy-4-phenylbutyl)phenyl)acetamide]	0.563	0.625	0.500	0.516	0.531	0.313	> 16	> 16	16	16	8	16 (≈ 53.4 µM)	> 64	> 64	> 64	> 64	> 64			
CN1CCC(C(=O)Nc2ccc(CCCCc3ccc(CC(=O)NO)cc3)cc2)CC1.Cl [Example 34, N-(4-(4-(4-(2-(hydroxyamino)-2-oxoethyl)phenyl)butyl)phenyl)-1-methylpiperidine-4-carboxamide hydrochloride]	0.375	0.375	0.625	0.266	0.156	0.188	8	8	2	1	1	> 64	> 64	> 64	> 64	> 64	> 64	(¼x)	(⅛x)	(⅛x)
O=C(Cc1ccc(CCCCc2ccc(O)cc2)cc1)NO [Example 15, N-hydroxy-2-(4-(4-(4-hydroxyphenyl)butyl)phenyl)acetamide]	0.375	0.500	0.625	0.266	0.281	0.188	8	8	2	2	1	> 8	> 8	> 16	> 16	> 16	> 16	(¼x)	(¼x)	(⅛x)
COCCOCCOCC(=O)Nc1ccc(CCCCc2ccc(CC(=O)NO)cc2)cc1 [Example 35, N-hydroxy-2-(4-(4-(4-(2-(2-(2-methoxyethoxy)ethoxy)acetamido)phenyl)butyl)phenyl)acetamide]	0.375	0.500	0.625	0.266	0.281	0.188	4	4	1	1	0.5	64 (≈ 140 µM)	> 64	64 (≈ 140 µM)	64 (≈ 140 µM)	64 (≈ 140 µM)	64 (≈ 140 µM)	(¼x)	(¼x)	(⅛x)
CC(C)(C(=O)NO)c1ccc(CCCCc2ccccc2)cc1 [Example 56, N-hydroxy-2-methyl-2-(4-(4-phenylbutyl)phenyl)propanamide]	0.563	0.625	0.490	0.516	0.531	0.303	0.5	0.5	0.25	0.25	0.12	0.25 (≈ 0.803 µM)	0.5 (≈ 1.61 µM)	> 2	> 2	> 2	> 2	(½x)	(½x)	(¼x)
O=C(Cc1ccc(CCCCc2ccc(F)cc2F)cc1)NO [Example 3, 2-(4-(4-(2,4-difluorophenyl)butyl)phenyl)-N-hydroxyacetamide]	0.563	0.625	0.490	0.516	0.531	0.303	0.5	0.5	0.25	0.25	0.12	0.5 (≈ 1.57 µM)	0.5 (≈ 1.57 µM)	0.5 (≈ 1.57 µM)	0.5 (≈ 1.57 µM)	0.25 (≈ 0.783 µM)	0.5 (≈ 1.57 µM)	(½x)	(½x)	(¼x)
